In PubChem BioAssay (NCI):
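Cells were grown in 96-well plates and exposed to each compound for 48 hours at five concentrations; endpoints were interpolated linearly between bracketing concentrations, or set to the highest concentration if not reached. Here, GI50 denotes the concentration required for 50% inhibition of growth. The concentration for full growth arrest is given as TGI.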

Tests used:
Assay in all cases: NCI anticancer screen, dose series, 48 h
[1] = test system: A498 renal
[2] = test system: COLO 205 colon
[3] = test system: K-562 leukemia
[4] = test system: MDA-MB-435
[5] = test system: NCI-H460 lung
[6] = test system: NCI-H522 lung
[7] = test system: NCI/ADR-RES ovarian
[8] = test system: SF-539 CNS
[9] = test system: SW-620 colon
[10] = test system: TK-10 renal

SMILES	TGI [1] [µM]	TGI [2] [µM]	TGI [3] [µM]	TGI [4] [µM]	TGI [5] [µM]	TGI [6] [µM]	TGI [7] [µM]	TGI [8] [µM]	TGI [9] [µM]	TGI [10] [µM]	GI50 [1] [µM]	GI50 [2] [µM]	GI50 [3] [µM]	GI50 [4] [µM]	GI50 [5] [µM]	GI50 [6] [µM]	GI50 [7] [µM]	GI50 [8] [µM]	GI50 [9] [µM]	GI50 [10] [µM]
COc1cc(OC)c(OC)cc1/C=C\c1ccnc2ccccc12	5.64	3.86	31.3	0.534	37.3	4.25	12.1	1.32	> 63.1	31.4										
Cc1cc(=O)[nH]c2c1C(=O)c1c(C)cc(=O)n(C)c1C2=O	0.36	0.037	> 10	0.0275	0.364	0.187	0.259	0.0369	0.179	0.418										
CC(C)OC(=O)c1cc(NC(=S)OC(C)C)ccc1Cl	> 51.1	22.2	> 100	31.4	> 55.3	26.6	> 63.4	30.5	> 64.6	52.4										
NCC[PH+](c1ccccc1)c1ccccc1.NCC[PH+](c1ccccc1)c1ccccc1.[Cl-].[Pt+4]	> 100	> 100	> 84.7	> 100	> 100	> 100	> 100	> 100	> 100	> 100	> 100	> 100	26.5	> 100	84.5	> 87.1	> 100	> 100	> 100	> 100
Cn1cc(C2=C(c3cccc([N+](=O)[O-])c3)C(=O)NC2=O)c2ccccc21	1.81	> 25	> 25	> 25	> 25	> 22.5	> 23.1	> 25	> 25	> 25	0.539	8.32	4.85	7.46	8.52	7.66	5.66	6.1	11.4	12.1
O=C(NCCNC1=CC(=O)c2nc3ccccc3c3ccnc1c23)c1cnccn1	> 100	> 100	> 100	63.2	> 100	> 100	> 100	> 100	> 100	37.2	> 100	52	33.6	14.5	18.4	44	96.6	51.5	24.2	10.3
CN(Cc1cnc2nc(N)nc(N)c2n1)c1c(Cl)cc(C(=O)NC(CCC(=O)O)C(=O)O)cc1Br (stereo not drawn)	> 100	> 100	> 100	> 100	> 100	> 100	> 100	> 100	> 100	> 100	0.0302	0.0535	< 0.01	< 0.01	< 0.01	0.0391	< 0.01	< 0.01	< 0.01	< 0.01
O=C([CH-]C(=O)c1ccccc1)c1ccccc1.[CH2-]C.[CH2-]C.[Tl+3]	> 100	> 100	59.6	> 100	> 100	> 85.2	> 100	86	> 100	> 100	48.9	26.6	9.92	24.8	10.8	21.5	26.1	23.2	26.5	55
COc1ccc(-c2nc3sccn3c2/C=C/C(=O)c2cc(OC)c(OC)c(OC)c2)cc1	6.41	13	> 23.9	> 100	11.1	> 22.2	> 28	4.96	> 100	> 100	2.52	2.82	2.43	2.85	2.54	4.16	2.66	1.79	3.01	5
CCCCCCC1CCCCN1C(c1ccccc1)C(O)c1ccccc1 (stereo not drawn)	23.5	11.4	21.7	19.2	13.6	18.5	22.9	24.3	18.4	27.6	11.1	3.09	4.23	4.71	3.92	5.1	10.1	11.6	5.35	14.2
O=[N+]([O-])/C=C/c1cn(CCCCCCCCn2cc(/C=C/[N+](=O)[O-])c3ccccc32)c2ccccc12	> 10	> 10	> 10	> 10	> 10	> 10	> 10	> 10	> 10	> 10										
COc1cc(C(=O)/C=C/c2c(C)n([O-])c3ccc(Cl)cc3[n+]2=O)cc(OC)c1OC	41	4.54	> 100	> 100	36.6	2.8	35.8	27.4	11.7	> 100	0.208	1.53	3.09	3.4	12.5	1.12	4.89	11.2	2.57	7.83
COC1CCC(OS(C)(=O)=O)C(C)O1 (stereo not drawn)	> 10	> 10	> 10	> 10	> 10	> 10	> 10	> 10	> 10	> 10										
COc1ccc2c(c1)CCC1C2CCC2(C)C(NC(=O)CCCCC3CCSS3)CCC12 (stereo not drawn)	> 100	> 100	> 100	> 100	93.3	> 100	> 100	> 100	> 100	> 100	62.2	5.49	5.81	9.3	4.84	9.4	> 100	> 100	> 100	16.1
COc1cc(C(=O)Nc2ccc(-c3nc4ccccc4[nH]3)cc2)cc(OC)c1OC	25.4	39.1	27.4	31	22.7	29.9	73.4	27.9	42.8	29.3	7.07	15.3	7.39	13.5	5.74	7.75	13	11.6	16.9	15.1
CCOC1OC(C)(C=C(C#N)C#N)CCC1C (stereo not drawn)	51	> 100	56.8	> 100	98.7	39.5	> 88.7	56.6	> 100	> 100										
COc1ccccc1CNCCCN1C(=O)c2ccc3c4c(ccc(c24)C1=O)C(=O)N(CCCNCCCCN)C3=O	2.55	0.263	1.27	0.397	1	0.367	22.8	0.818	0.858	4.63	0.972	0.125	0.298	0.184	0.313	0.182	3.58	0.296	0.161	0.976
COc1cc(/C=C/C(=O)/C=C/c2ccc(-n3ccnc3)cc2)ccc1O	19.9	10.1	> 100	5.14	34.9	18.9	> 100	6.31	5.78	36.3	7.22	3.26	3.18	2.21	14.1	4.98	15.9	2.47	2.34	4.42
CNc1ccc(CSc2ccc(C)cc2)cc1	> 100	29.3		> 100	> 100	23.7	> 100	24.5	> 100	> 100	0.178	15.7		13.1	25.3	3.62	21.4	3.69	18.6	40.3
c1ccc(-c2nc3ccccc3[nH]2)c(OCCCCCOc2ccccc2-c2nc3ccccc3[nH]2)c1	25.5	31.9	> 100	29.3	25.6	39.1	33.3	11.5	12.9	30.8	12.1	8.49	4.35	11.3	3.75	5.46	5.74	3.44	3.18	13
Fc1cccc(C2ON=C(c3ccccc3)N2C23CC4CC(CC(C4)C2)C3)c1 (stereo not drawn)	> 10	> 10	> 10	> 10	> 10	> 10	> 10	> 10	> 10	> 10										
